PMC4053365 (PLoS ONE, 2014)
Where a name gives a salt, the structure may show the parent alone.

Columns and labels:
mice [1] = assay: Hot-plate test (acute thermal nociception); format: in vivo; settings: s.c.; for ED50: Mus musculus, sc, 0.5 h, 30 min after administration, read-out: ED50 (95% CL) Hot-plate test
mice [2] = assay: Observation of locomotor activity and sedation during antinociception testing; format: in vivo; settings: s.c., any tested dose, about 3- to 4-fold the analgesic ED50 dose
mice [3] = assay: Tail-flick test (acute thermal nociception); format: in vivo; settings: s.c.; for ED50: Mus musculus, sc, 0.5 h, 30 min after administration, read-out: ED50 (95% CL) Tail-flick test
rodents = settings: fraction or fold of morphine potency; cited from earlier work
DOP = target: DOP; set-up: method as in earlier work; settings: read-out: Ki DOP (previously reported); cited from earlier work
KOP = target: KOP; set-up: method as in earlier work; settings: read-out: Ki KOP (previously reported); cited from earlier work
MOP = target: MOP; set-up: method as in earlier work; settings: read-out: Ki MOP (previously reported); cited from earlier work
KOP receptor = target: T1, KOP receptor (Cavia porcellus, UniProt P41144); assay: Radioligand binding assay, [3H]U69,593, guinea pig brain membranes
T1 construct: Membranes were prepared from Sprague-Dawley rat or guinea pig brains; from tissue; host or cells: guinea pig brain membranes
T1 sequence (P41144 whole entry): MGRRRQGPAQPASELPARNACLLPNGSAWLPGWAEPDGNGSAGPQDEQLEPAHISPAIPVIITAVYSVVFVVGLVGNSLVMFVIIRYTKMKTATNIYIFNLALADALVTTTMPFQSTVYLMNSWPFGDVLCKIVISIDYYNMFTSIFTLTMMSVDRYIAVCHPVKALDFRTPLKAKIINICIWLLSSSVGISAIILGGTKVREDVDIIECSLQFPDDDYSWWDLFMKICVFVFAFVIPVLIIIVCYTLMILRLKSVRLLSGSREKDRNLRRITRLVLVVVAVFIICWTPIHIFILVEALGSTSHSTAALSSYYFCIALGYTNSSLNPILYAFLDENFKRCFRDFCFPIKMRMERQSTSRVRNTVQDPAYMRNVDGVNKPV

human DOP receptor [4] = target: T2, human DOP receptor (Homo sapiens, UniProt P41143); format: cell-based; set-up: expressed in transfected cells; host or cells: CHO (CHOhDOP) stably expressing GαqG66Di5, whole cells; settings: CHO cells co-expressing human DOP and GαqG66Di5; inactive = inactive up to 10 µM; crc = concentration response curve
T2 sequence (P41143 whole entry): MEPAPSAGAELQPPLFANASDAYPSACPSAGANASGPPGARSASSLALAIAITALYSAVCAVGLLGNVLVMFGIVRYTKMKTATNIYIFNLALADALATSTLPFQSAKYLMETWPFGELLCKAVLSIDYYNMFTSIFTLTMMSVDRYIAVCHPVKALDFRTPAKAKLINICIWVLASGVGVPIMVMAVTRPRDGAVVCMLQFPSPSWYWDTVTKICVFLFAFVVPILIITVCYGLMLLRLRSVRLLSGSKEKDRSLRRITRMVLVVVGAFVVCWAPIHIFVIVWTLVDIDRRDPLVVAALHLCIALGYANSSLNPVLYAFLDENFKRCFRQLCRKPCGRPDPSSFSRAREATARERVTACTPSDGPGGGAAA

MOP receptor = target: T3, MOP receptor (Rattus norvegicus, UniProt P33535); assay: Radioligand binding assay, [3H]DAMGO, rat brain membranes; settings: for Selectivity ratio DOP/MOP / Selectivity ratio KOP/MOP: ratio of Ki values
T3 construct: Membranes were prepared from Sprague-Dawley rat or guinea pig brains; from tissue; host or cells: Sprague-Dawley rat brain membranes
T3 sequence (P33535 whole entry): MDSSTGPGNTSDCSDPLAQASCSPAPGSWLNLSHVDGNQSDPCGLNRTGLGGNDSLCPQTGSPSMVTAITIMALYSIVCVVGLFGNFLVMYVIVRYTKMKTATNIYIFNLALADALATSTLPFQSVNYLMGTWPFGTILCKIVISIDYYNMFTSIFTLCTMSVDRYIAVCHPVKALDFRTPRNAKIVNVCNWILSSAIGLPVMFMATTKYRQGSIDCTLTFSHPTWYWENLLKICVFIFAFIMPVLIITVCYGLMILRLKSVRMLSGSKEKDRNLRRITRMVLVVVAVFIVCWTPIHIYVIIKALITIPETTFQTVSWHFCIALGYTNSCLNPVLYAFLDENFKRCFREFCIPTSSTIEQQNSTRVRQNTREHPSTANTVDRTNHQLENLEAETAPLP

human MOP receptor [5] = target: T4, human MOP receptor (Homo sapiens, UniProt P35372); assay: biochemical; format: biochemical; set-up: expressed in transfected cells; host or cells: CHO (CHOhMOP) cell membranes
T4 sequence (P35372 whole entry): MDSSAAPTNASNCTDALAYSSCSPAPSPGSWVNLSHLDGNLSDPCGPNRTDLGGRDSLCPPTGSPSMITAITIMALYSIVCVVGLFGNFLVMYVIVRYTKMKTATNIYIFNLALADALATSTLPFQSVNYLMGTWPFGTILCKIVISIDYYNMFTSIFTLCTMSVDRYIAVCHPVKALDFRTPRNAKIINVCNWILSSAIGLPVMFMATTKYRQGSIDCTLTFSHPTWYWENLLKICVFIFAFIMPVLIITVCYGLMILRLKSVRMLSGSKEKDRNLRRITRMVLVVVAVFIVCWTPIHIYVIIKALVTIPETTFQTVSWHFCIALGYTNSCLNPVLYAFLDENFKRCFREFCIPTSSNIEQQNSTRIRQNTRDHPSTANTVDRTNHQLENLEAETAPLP

human KOP receptor [6] = target: T5, human KOP receptor (Homo sapiens, UniProt P41145); format: cell-based; set-up: expressed in transfected cells; host or cells: CHO (CHOhKOP) stably expressing Gαqi5, whole cells
T5 sequence (P41145 whole entry): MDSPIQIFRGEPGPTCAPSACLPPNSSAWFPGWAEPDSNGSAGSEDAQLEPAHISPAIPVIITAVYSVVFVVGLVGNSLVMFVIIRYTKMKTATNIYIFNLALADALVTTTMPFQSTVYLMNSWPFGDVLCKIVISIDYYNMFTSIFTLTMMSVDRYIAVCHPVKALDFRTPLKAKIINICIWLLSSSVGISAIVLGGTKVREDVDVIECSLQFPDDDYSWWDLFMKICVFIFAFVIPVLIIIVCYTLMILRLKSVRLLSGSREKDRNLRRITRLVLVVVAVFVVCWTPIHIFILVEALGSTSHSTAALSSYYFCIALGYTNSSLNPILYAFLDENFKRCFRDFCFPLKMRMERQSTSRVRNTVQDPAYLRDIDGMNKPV

human DOP receptor [7] = target: T2, human DOP receptor; assay: biochemical; set-up: expressed in transfected cells; host or cells: CHO (CHOhDOP) cell membranes
human KOP receptor [8] = target: T5, human KOP receptor; assay: biochemical; set-up: expressed in transfected cells; host or cells: CHO (CHOhKOP) cell membranes
DOP receptor = target: T6, DOP receptor (Rattus norvegicus, UniProt P33533); assay: Radioligand binding assay, [3H][Ile5,6]deltorphin II, rat brain membranes
T6 construct: Membranes were prepared from Sprague-Dawley rat or guinea pig brains; from tissue; host or cells: Sprague-Dawley rat brain membranes
T6 sequence (P33533 whole entry): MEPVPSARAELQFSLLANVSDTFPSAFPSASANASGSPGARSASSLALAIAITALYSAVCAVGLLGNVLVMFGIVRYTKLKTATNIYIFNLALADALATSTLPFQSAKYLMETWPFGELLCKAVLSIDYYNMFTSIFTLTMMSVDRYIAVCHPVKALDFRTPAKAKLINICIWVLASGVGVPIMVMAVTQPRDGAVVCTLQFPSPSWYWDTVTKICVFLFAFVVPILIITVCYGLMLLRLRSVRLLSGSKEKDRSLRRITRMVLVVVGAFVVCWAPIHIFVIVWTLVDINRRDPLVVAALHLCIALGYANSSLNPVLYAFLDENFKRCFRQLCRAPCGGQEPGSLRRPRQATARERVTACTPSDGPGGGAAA

human MOP receptor [9] = target: T4, human MOP receptor; assay: cell-based; format: cell-based; set-up: expressed in transfected cells; host or cells: CHO (CHOhMOP) stably expressing Gαqi5, whole cells

**Q.** Which melting point does the source give for `O=C1CC[C@@]2(O)[C@H]3Cc4ccc(O)c5c4[C@@]2(CCN3CCc2ccccc2)[C@H]1O5` (as salt: HCl) [Compound 6, N-phenethylnoroxymorphone] here?
**A.** Its melting point is 85 to 90 °C.

**Q.** For `O=C1CC[C@@]2(O)[C@H]3Cc4ccc(O)c5c4[C@@]2(CCN3CCc2ccccc2)[C@H]1O5` [Compound 6, N-phenethylnoroxymorphone], which ED50 (mice [1]) is on record?
**A.** Its ED50 is 0.18 mg/kg.

**Q.** And the “Antinociceptive potency higher than 6-hydroxy counterpart 4” value (mice [1]; hot-plate and tail-flick tests, vs compound 4)?
**A.** Its value is “up to 8 fold”.

**Q.** And the “Antinociceptive potency higher than oxymorphone” value (mice [1]; hot-plate and tail-flick tests, vs oxymorphone)?
**A.** The value was “about 2 fold”.

**Q.** And the “Locomotor activity and sedative effects” value (mice [2])?
**A.** Its value is “no major alterations in locomotor activity and no sedative effects”.

**Q.** What about the ED50 (mice [3]) of the same molecule?
**A.** Its ED50 is 0.15 mg/kg.

**Q.** For `Oc1ccc2c3c1OC1C(O)C=CC4C(C2)N(Cc2ccccc2)CCC341` (centres unmarked) [N-benzylnormorphine], which “Analgesic potency relative to morphine” value (rodents) is on record?
**A.** The value was “less than one-tenth”.

**Q.** With `CN1CC[C@]23c4c5ccc(O)c4O[C@H]2C(=O)CC[C@@]3(O)[C@H]1C5` [Oxymorphone, reference compound] as the molecule, how does the ED50 (mice [1]) read?
**A.** The ED50 was 0.38 mg/kg.

**Q.** What about the ED50 (mice [3]) of the same molecule?
**A.** The ED50 was 0.35 mg/kg.

**Q.** What does the source list for `O=C1CC[C@@]2(O)[C@H]3Cc4ccc(O)c5c4[C@@]2(CCN3Cc2ccccc2)[C@H]1O5` [Compound 5, N-Benzylnoroxymorphone]?
**A.** melting point: 235 to 237 °C; Ki (DOP): […]; Ki (KOP): […]; Ki (MOP): […]

**Q.** Which melting point does the source give for `Oc1ccc2c3c1O[C@H]1[C@@H](O)C=C[C@H]4[C@@H](C2)N(CCc2ccccc2)CC[C@@]341` [Compound 1, N-phenethylnormorphine] here?
**A.** Its melting point is 255 to 257 °C.

**Q.** What about the Ki (KOP receptor) of the same molecule?
**A.** The Ki was 107 ± 18 nM.

**Q.** And the “Calcium mobilization assay DOP EC50” value (human DOP receptor [4])?
**A.** Its value is “crc incomplete ^e”.

**Q.** And the Ki (MOP receptor)?
**A.** Its Ki is 0.93 ± 0.14 nM.

**Q.** What about the “Selectivity ratio DOP/MOP” value (MOP receptor) of the same molecule?
**A.** Its value is 40.

**Q.** And the “Selectivity ratio KOP/MOP” value (MOP receptor)?
**A.** Its value is 115.

**Q.** What about the “MOP receptor affinity greater than morphine” value (MOP receptor; vs morphine) of the same molecule?
**A.** The value was 7 fold.

**Q.** What about the EC50 (human MOP receptor [5]) of the same molecule?
**A.** The EC50 was 10.3 ± 0.9 nM.

**Q.** And the “MOP agonist potency in [35S]GTPγS more potent than DAMGO” value (human MOP receptor [5])?
**A.** The value was 2 fold.

**Q.** And the “MOP agonist potency in [35S]GTPγS more potent than morphine” value (human MOP receptor [5])?
**A.** The value was “about 3 fold”.

**Q.** What about the Emax (human MOP receptor [5]; read-out: [35S]GTPγS functional assay MOP Emax) of the same molecule?
**A.** The Emax was 113 ± 8%.

**Q.** And the “Calcium mobilization assay KOP EC50” value (human KOP receptor [6])?
**A.** Its value is “inactive ^d”.

**Q.** And the “Calcium mobilization assay KOP Emax” value (human KOP receptor [6])?
**A.** Its value is “inactive ^d”.

**Q.** What about the EC50 (human DOP receptor [7]) of the same molecule?
**A.** Its EC50 is 712 ± 86 nM.

**Q.** And the Emax (human DOP receptor [7]; read-out: [35S]GTPγS functional assay DOP Emax)?
**A.** Its Emax is 138 ± 17%.

**Q.** What about the ED50 (mice [1]) of the same molecule?
**A.** The ED50 was 0.11 mg/kg.

**Q.** What about the “Hot-plate test, more effective than morphine” value (mice [1]; vs morphine) of the same molecule?
**A.** The value was 22 fold.

**Q.** What about the EC50 (human KOP receptor [8]) of the same molecule?
**A.** The EC50 was 1050 nM.

**Q.** What about the Emax (human KOP receptor [8]; read-out: [35S]GTPγS functional assay KOP Emax) of the same molecule?
**A.** The Emax was 19 ± 2%.

**Q.** What about the Ki (DOP receptor) of the same molecule?
**A.** Its Ki is 37 ± 5.5 nM.

**Q.** And the “Locomotor activity and sedative effects” value (mice [2])?
**A.** The value was “no major alterations in locomotor activity and no sedative effects”.

**Q.** And the “Calcium mobilization MOP more active than 14-hydroxy analogue 4” value (human MOP receptor [9])?
**A.** Its value is “about 3 fold”.

**Q.** And the “Calcium mobilization MOP more potent than morphine” value (human MOP receptor [9])?
**A.** The value was “about 3 fold”.

**Q.** And the EC50 (human MOP receptor [9])?
**A.** The EC50 was 48.8 ± 14 nM.

**Q.** What about the Emax (human MOP receptor [9]; read-out: Calcium mobilization assay MOP Emax) of the same molecule?
**A.** Its Emax is 70 ± 4%.

**Q.** What about the ED50 (mice [3]) of the same molecule?
**A.** Its ED50 is 0.11 mg/kg.

**Q.** What about the “Tail-flick test, more effective than morphine” value (mice [3]; vs morphine) of the same molecule?
**A.** Its value is 28 fold.

**Q.** Which Ki (KOP receptor) does the source give for `Oc1ccc2c3c1O[C@H]1[C@@H](O)C=C[C@H]4[C@@H](C2)N(CCCc2ccccc2)CC[C@@]341` [Compound 2, N-phenylpropylnormorphine] here?
**A.** The Ki was 565 ± 24 nM.

**Q.** What about the Ki (MOP receptor) of the same molecule?
**A.** Its Ki is 79.5 ± 1.1 nM.

**Q.** And the “Selectivity ratio DOP/MOP” value (MOP receptor)?
**A.** The value was 11.

**Q.** And the “Selectivity ratio KOP/MOP” value (MOP receptor)?
**A.** The value was 7.

**Q.** And the Ki (DOP receptor)?
**A.** The Ki was 869 ± 171 nM.

**Q.** With N-cyclohexylethylnormorphine as the molecule, how does the “Analgesic potency relative to morphine” value (rodents) read?
**A.** The value was “one-third”.

**Q.** Which results are given for `Oc1ccc2c3c1O[C@H]1[C@@H](O)C=C[C@@]4(O)[C@@H](C2)N(CCc2ccccc2)CC[C@]314` [Compound 4, N-Phenethyl-14-hydroxynormorphine]?
**A.** Ki (KOP receptor): 513 ± 66 nM; Calcium mobilization assay DOP EC50 (human DOP receptor [4]): inactive ^d; Ki (MOP receptor): 4.6 ± 0.01 nM; MOP receptor affinity lower than 14-unsubstituted counterpart 1 (MOP receptor; vs compound 1): about 5 fold; MOP receptor binding affinity increase over 14-hydroxymorphine (3) (MOP receptor; vs compound 3): about 4 fold; Calcium mobilization assay KOP EC50 (human KOP receptor [6]): inactive ^d; Calcium mobilization assay KOP Emax (human KOP receptor [6]): inactive ^d; Ki (DOP receptor): 163 ± 17 nM; Locomotor activity and sedative effects (mice [2]): no major alterations in locomotor activity and no sedative effects; ED50 (mice [3]): 1.14 mg/kg
